We go through 39 molecules from patent publication US11634412B2, “3-phosphoglycerate dehydrogenase inhibitors and uses thereof” (Raze Therapeutics, Inc., priority 2016, dated 2023).

Structures are written as SMILES.

This assay has as its target T1, Full length (FL) 3-Phosphoglycerate Dehydrogenase (PHGDH) (Homo sapiens, UniProt O43175).
T1 construct: Full length (FL) 3-Phosphoglycerate Dehydrogenase (PHGDH) Diaphorase coupled assay (500 uM NAD)
T1 sequence (O43175 1-533): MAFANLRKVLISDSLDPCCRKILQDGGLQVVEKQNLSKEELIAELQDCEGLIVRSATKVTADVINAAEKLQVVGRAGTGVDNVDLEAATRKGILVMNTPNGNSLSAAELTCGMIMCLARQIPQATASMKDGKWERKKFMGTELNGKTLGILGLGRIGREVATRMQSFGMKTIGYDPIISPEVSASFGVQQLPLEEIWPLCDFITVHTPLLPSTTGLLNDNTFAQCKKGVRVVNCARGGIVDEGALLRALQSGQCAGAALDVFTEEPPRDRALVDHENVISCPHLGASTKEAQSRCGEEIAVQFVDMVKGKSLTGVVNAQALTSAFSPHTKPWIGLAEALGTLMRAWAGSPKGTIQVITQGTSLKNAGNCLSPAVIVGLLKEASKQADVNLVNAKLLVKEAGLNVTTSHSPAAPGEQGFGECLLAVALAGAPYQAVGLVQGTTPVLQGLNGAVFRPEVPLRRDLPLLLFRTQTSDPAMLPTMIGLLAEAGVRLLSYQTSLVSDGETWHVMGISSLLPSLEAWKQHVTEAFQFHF
The experiment in a line: Full length (FL) PHGDH Diaphorase coupled assay (500 uM NAD). It is filed as biochemical. The conditions noted are these: full-length PHGDH 5 nM, 30° C. 60 minutes, resorufin fluorescence. The protocol:
Full length (FL) 3-Phosphoglycerate Dehydrogenase (PHGDH) Diaphorase coupled assay (500 uM NAD)
PHGDH activity was determined by detecting the NADH produced during the reaction. Diaphorase was used to catalyze the oxidation of NADH with the concomitant reduction of resazurin to the fluorescent product resorufin. Resorufin fluorescence quantitatively reflected the production of NADH by the PHGDH reaction. To drive the forward reaction, two enzymes in the serine synthesis pathway subsequent to PHGDH, Phosphoserine aminotransferase (PSAT1) and phosphoserine phosphatase (PSPH) were also added to the reaction.
Briefly, serial dilution of compounds were incubated in a volume of 20 μL in 384 well plates with the assay mixture containing 5 nM PHGDH, 500 nM PSAT1, 500 nM PSPH, 500 μM NAD^+, 80 uM 3-phosphoglycerate, 1 mM glutamate, 57 uM Resazurin and 0.2 mg/ml Diaphorase in assay buffer containing 50 mM Trisethanoloamine (TEA) pH8.0, 10 mM MgCl2, 0.01% Tween-20 and 0.05% Bovine Serum Albumin (BSA). The plate was then incubated at 30° C. for 60 minutes and resorufin fluorescence was measured at emission wavelength 598 nm following excitation at 525 nm. The positive control consisted of the complete reaction mixture with 4% DMSO and was set to 0% inhibition.
In turn, `Cn1c(C(=O)NC2(c3ccc(CC(=O)O)cc3C#N)CCOC2)cc2c(Cl)c(Cl)ccc21` (racemic) [I-71 e158, (±)-2-[3-Cyano-4-[3-[(4,5-dichloro-1-methyl-indole-2-carbonyl)amino]tetrahydro-furan-3-yl]phenyl]acetic acid] registered an IC50 of 1000 to 5000 nM.

In the case of `CCC(C(=O)O)c1ccc(C2(NC(=O)c3cc4c(Cl)c(Cl)ccc4n3C)CCOC2)cc1` (racemic) [I-72 e56], the IC50 lay within 1 to 1000 nM.

With `Cn1c(C(=O)NC2(c3ccc(C(=O)O)nc3)CCOC2)cc2c(Cl)c(Cl)ccc21` (racemic) [I-73 e28], the half-inhibitory concentration (IC50) fell in the range of 1000 to 5000 nM.

`Cn1c(C(=O)NC2(c3ccc(C(=O)O)cn3)CCOC2)cc2c(Cl)c(Cl)ccc21` (racemic) [I-74 e27] showed an IC50 of 1 to 1000 nM.

As to `COc1ccc2c(cc(C(=O)NC3(c4ccc(C(C)(C)C(=O)O)cc4)CCOC3)n2C)c1Cl` (racemic) [I-77 e63], the IC50 lay in the range of 1 to 1000 nM.

Consider `COc1ccc2c(cc(C(=O)NC3(c4ccc(CC(=O)O)cc4)CCOC3)n2C)c1Cl` (racemic) [I-78 e40], for which the IC50 was in the range of 1 to 1000 nM.

In turn, `Cn1c(C(=O)NC2(c3ccc(C(=O)O)cc3)CCOC2)cc2c(Cl)c(Cl)c(OCC3COC3)cc21` (racemic) [I-80 e103] returned an IC50 of 1 to 1000 nM.

`Cn1c(C(=O)NC2(c3ccc(C(=O)O)cc3)CCOC2)cc2c(Cl)c(Cl)c(OCc3ncc[nH]3)cc21` (racemic) [I-81 e105] gave an IC50 of 1 to 1000 nM.

In turn, `Cn1c(C(=O)NC2(c3ccc(C(C)(C)C(=O)O)cc3)CCOC2)cc2c(Cl)c(Cl)ccc21` (racemic) [I-87 e37] came in with an IC50 of 1 to 1000 nM.

On to `CCc1cc(C2(NC(=O)c3cc4c(Cl)c(Cl)ccc4n3C)CCOC2)ccc1C(=O)O` (racemic) [I-88 e156, (±)-4-[3-[(4,5-Dichloro-1-methyl-indole-2-carbonyl)amino]tetrahydro-furan-3-yl]-2-ethyl-benzoic acid], for which the IC50 is 1000 to 5000 nM.

Molecule `Cn1c(C(=O)NC2(c3ccc(C(=O)O)cc3)CCOC2)cc2c(Cl)c(Cl)c(OCC3CCOC3)cc21` (racemic) [I-92 e101] gave an IC50 of 1 to 1000 nM.

`CN1CC(COc2cc3c(cc(C(=O)NC4(c5ccc(C(=O)O)cc5)CCOC4)n3C)c(Cl)c2Cl)OC1=O` (racemic) [I-93 e106] gave an IC50 of 1 to 1000 nM.

`Cn1c(C(=O)NC2(c3ccc(C(=O)O)cc3)CCOC2)cc2c(Cl)c(Cl)c(OCC3CCCO3)cc21` (racemic) [I-94 e98]: the IC50 was 1 to 1000 nM.

In turn, `Cn1c(C(=O)NC2(c3ccc(C(=O)O)cc3)CCOC2)cc2c(Cl)cc(OCC3CNC(=O)O3)cc21` (racemic) [I-95 e96] registered an IC50 of 1000 to 5000 nM.

In the case of `Cn1c(C(=O)NC2(c3ccc(C(=O)O)cc3)CCOC2)cc2c(Cl)c(C3CC3)ccc21` (racemic) [I-96 e36], the IC50 is 1 to 1000 nM.

Turning to `CN(C)CCOc1cc2c(cc(C(=O)NC3(c4ccc(C(=O)O)cc4)CCOC3)n2C)c(Cl)c1Cl` (racemic) [I-97 e102], the IC50 lay in the range of 1 to 1000 nM.

Molecule `Cc1cc(C2(NC(=O)c3cc4c(Cl)c(Cl)ccc4n3C)CCOC2)ccc1C(=O)O` (racemic) [I-98 e155, (±)-4-[3-[(4,5-Dichloro-1-methyl-indole-2-carbonyl)amino]tetrahydro-furan-3-yl]-2-methyl-benzoic acid] yielded an IC50 of 1 to 1000 nM.

Take `Cc1cc(C(=O)O)ccc1C1(NC(=O)c2cc3c(Cl)c(Cl)ccc3n2C)CCOC1` (racemic) [I-99 e89]: the IC50 was 1 to 1000 nM.

`COCCOc1cc2c(cc(C(=O)NC3(c4ccc(C(=O)O)cc4)CCOC3)n2C)c(Cl)c1Cl` (racemic) [I-100 e99] gave an IC50 of 1 to 1000 nM.

Molecule `Cn1c(C(=O)NC2(c3ccc(C(=O)O)c(C4CC4)c3)CCOC2)cc2c(Cl)c(Cl)ccc21` (racemic) [I-101 e157, (±)-2-cyclopropyl-4-[3-[(4,5-dichloro-1-methyl-indole-2-carbonyl)amino]-tetrahydrofuran-3-yl]benzoic acid] registered an IC50 of 1000 to 5000 nM.

`CN1CC(COc2cc3c(cc(C(=O)NC4(c5ccc(C(=O)O)cc5)CCOC4)n3C)c(Cl)c2Cl)CC1=O` (racemic) [I-102 e100]: the IC50 lay in the range of 1 to 1000 nM.

Turning to `CCOc1cc2c(cc(C(=O)NC3(c4ccc(C(=O)O)cc4)CCOC3)n2C)c(Cl)c1Cl` (racemic) [I-104 e97], the IC50 lay in the range of 1 to 1000 nM.

`CC(C(=O)O)c1ccc(C2(NC(=O)c3cc4c(Cl)c(Cl)ccc4n3C)CCOC2)cc1` (racemic) [I-105 e152, (±)-2-[4-[3-[(4,5-dichloro-1-methyl-indole-2-carbonyl)amino]tetrahydrofuran-3-yl]phenyl]propanoic acid] came in with an IC50 of 1 to 1000 nM.

Molecule `Cn1c(C(=O)NC2(c3ccc(C(=O)O)cc3)CCOC2)cc2c(Cl)c(F)ccc21` (racemic) [I-106 e31] came in with an IC50 of 1000 to 5000 nM.

Consider `Cn1c(C(=O)NC2(c3ccc(C(=O)O)cc3Cl)CCOC2)cc2c(Cl)c(Cl)ccc21` (racemic) [I-107 e24], for which the IC50 lay in the range of 1 to 1000 nM.

In turn, `CC(=O)N1CCC(NC(=O)c2cc3c(Cl)c(Cl)ccc3n2C)(c2ccc(C(=O)O)cc2)C1` (racemic) [I-110 e20] returned an IC50 of 1 to 1000 nM.

For `Cn1c(C(=O)NC2(c3ccc(C(=O)O)cc3)CCOC2)cc2c(Cl)c(Cl)c(OCC3CNC(=O)O3)cc21` (racemic) [I-111 e95], the IC50 lay within 1 to 1000 nM.

For `Cn1c(C(=O)NC2(c3ccc(C(=O)O)cc3)CCOC2)cc2c(Cl)c3c(cc21)OCCO3` (racemic) [I-113 e35], the IC50 was in the range of 1 to 1000 nM.

The molecule `COc1cc(Cl)c2cc(C(=O)NC3(c4ccc(C(=O)O)cc4)CCOC3)n(C)c2c1` (racemic) [I-114 e34] yielded an IC50 of 1000 to 5000 nM.

`COc1cc2c(cc(C(=O)NC3(c4ccc(C(=O)O)cc4)CCOC3)n2C)c(Cl)c1Cl` (racemic) [I-115 e33]: the IC50 is 1 to 1000 nM.

With `Cc1ccc2c(cc(C(=O)NC3(c4ccc(C(=O)O)cc4)CCOC3)n2C)c1Cl` (racemic) [I-116 e32], the IC50 was 1 to 1000 nM.

`Cn1c(C(=O)NC2(c3ccc(C(=O)O)cc3)CCOC2)cc2c(Cl)cccc21` (racemic) [I-117 e30] had an IC50 of 1000 to 5000 nM.

`Cn1c(C(=O)NC2(c3ccc(C(=O)O)cc3F)CCOC2)cc2c(Cl)c(Cl)ccc21` (racemic) [I-118 e29] yielded an IC50 of 1 to 1000 nM.

`Cn1c(C(=O)NC2(c3cccc(CC(=O)O)c3)CCOC2)cc2c(Cl)c(Cl)ccc21` (racemic) [I-119 e153, (±)-2-[3-[3-[(4,5-Dichloro-1-methyl-indole-2-carbonyl)amino]tetrahydrofuran-3-yl]phenyl]acetic acid] came in with an IC50 of 1 to 1000 nM.

`Cn1c(C(=O)NC2(c3ccc(C(=O)O)c(C#N)c3)CCOC2)cc2c(Cl)c(Cl)ccc21` (racemic) [I-120 e154, (±)-2-Cyano-4-(3-(4,5-dichloro-1-methyl-1H-indole-2-carboxamido)tetrahydrofuran-3-yl)benzoic acid] had an IC50 of 1 to 1000 nM.

`Cn1c(C(=O)NC2(c3ccc(C(=O)O)cc3)CCN(c3ccccc3)C2)cc2c(Cl)c(Cl)ccc21` (racemic) [I-121 e21] yielded an IC50 of 1000 to 5000 nM.

The molecule `COc1ccc2c(cc(C(=O)NC3(c4ccc(C(=O)O)cc4)CCOC3)n2C)c1Cl` (racemic) [I-122 e26] displayed an IC50 of 1 to 1000 nM.

Molecule `Cn1c(C(=O)NC2(c3ccc(C(=O)O)cc3)CCCOC2)cc2c(Cl)c(Cl)ccc21` (racemic) [I-123 e23] gave an IC50 of 1 to 1000 nM.

`Cn1c(C(=O)NC2(c3ccc(C(=O)O)cc3)CCN(CC(F)(F)F)C2)cc2c(Cl)c(Cl)ccc21` (racemic) [I-125 e19] showed an IC50 of 1000 to 5000 nM.
